How the values were obtained:
[1] = target: Tyrosine-protein kinase CSK (Homo sapiens) (UniProt P41240); assay: Residual activity of CSK at 1 uM by microplate scintillation counting
[2] = target: Activin receptor type-1-like (Homo sapiens) (UniProt P37023); assay: Residual activity of ACV-RL1 at 1 uM by microplate scintillation counting
[3] = target: T1, Muscle, skeletal receptor tyrosine-protein kinase (Homo sapiens) (UniProt O15146); assay: Residual activity of MUSK at 10 uM by microplate scintillation counting
T1 sequence (whole entry): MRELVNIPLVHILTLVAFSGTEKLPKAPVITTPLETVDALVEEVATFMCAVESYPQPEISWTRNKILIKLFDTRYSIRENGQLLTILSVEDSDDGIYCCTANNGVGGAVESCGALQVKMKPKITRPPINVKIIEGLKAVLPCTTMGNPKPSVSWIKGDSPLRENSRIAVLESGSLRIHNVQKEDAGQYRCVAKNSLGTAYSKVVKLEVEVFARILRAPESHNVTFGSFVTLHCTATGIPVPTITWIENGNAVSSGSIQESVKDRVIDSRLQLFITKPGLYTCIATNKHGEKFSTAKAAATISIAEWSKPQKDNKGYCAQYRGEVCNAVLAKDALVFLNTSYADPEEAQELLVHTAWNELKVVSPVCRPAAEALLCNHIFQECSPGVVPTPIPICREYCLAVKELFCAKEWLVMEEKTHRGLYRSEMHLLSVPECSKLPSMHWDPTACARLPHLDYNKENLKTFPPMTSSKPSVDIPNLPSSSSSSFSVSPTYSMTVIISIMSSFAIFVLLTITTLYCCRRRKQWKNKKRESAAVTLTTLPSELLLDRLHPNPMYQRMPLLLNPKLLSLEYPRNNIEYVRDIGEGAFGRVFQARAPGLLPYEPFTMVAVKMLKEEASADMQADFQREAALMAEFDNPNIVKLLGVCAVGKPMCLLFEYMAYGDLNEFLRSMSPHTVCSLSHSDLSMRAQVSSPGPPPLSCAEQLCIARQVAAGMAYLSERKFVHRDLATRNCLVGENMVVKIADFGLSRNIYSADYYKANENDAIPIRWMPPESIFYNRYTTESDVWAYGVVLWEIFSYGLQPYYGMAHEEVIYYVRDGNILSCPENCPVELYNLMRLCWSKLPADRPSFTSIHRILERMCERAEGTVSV

[4] = target: Casein kinase I isoform gamma-1 (Homo sapiens) (UniProt Q9HCP0); assay: Residual activity of CK1gamma1 at 0.1 uM by microplate scintillation counting
[5] = target: Serine/threonine-protein kinase WNK2 (Homo sapiens) (UniProt Q9Y3S1); assay: Residual activity of WNK2 at 1 uM by microplate scintillation counting
[6] = target: Tyrosine-protein kinase BTK (Homo sapiens) (UniProt Q06187); assay: Residual activity of BTK at 10 uM by microplate scintillation counting
[7] = target: T2, Ephrin type-B receptor 1 (Homo sapiens) (UniProt P54762); assay: Residual activity of EPHB1 at 10 uM by microplate scintillation counting
T2 sequence (whole entry): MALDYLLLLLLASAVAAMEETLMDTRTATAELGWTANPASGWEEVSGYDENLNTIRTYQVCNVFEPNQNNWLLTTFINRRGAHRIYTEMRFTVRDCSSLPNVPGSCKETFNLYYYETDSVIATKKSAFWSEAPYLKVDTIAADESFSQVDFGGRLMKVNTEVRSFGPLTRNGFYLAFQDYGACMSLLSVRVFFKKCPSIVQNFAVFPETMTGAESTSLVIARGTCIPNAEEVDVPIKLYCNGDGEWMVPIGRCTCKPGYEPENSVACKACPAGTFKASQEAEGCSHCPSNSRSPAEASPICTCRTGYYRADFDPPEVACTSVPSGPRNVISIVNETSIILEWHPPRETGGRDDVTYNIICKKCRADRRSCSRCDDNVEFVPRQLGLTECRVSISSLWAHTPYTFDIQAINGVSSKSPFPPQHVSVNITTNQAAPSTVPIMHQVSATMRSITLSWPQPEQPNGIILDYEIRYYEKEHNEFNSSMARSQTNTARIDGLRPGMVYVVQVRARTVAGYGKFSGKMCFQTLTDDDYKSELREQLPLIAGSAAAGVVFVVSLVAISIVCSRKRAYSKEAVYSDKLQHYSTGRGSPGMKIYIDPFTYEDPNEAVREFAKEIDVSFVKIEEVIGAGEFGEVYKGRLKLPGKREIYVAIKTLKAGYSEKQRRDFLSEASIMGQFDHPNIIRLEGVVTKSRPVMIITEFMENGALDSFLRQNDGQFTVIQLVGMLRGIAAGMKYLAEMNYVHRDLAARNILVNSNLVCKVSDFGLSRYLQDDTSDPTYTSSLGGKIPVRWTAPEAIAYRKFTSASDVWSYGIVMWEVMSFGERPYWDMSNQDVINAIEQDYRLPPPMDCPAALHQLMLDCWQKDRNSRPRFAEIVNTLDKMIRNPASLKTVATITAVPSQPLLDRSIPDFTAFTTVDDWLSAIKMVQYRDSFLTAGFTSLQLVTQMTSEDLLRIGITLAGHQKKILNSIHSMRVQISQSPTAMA

[8] = target: Mitogen-activated protein kinase 1 (Homo sapiens) (UniProt P28482); assay: Residual activity of ERK2 at 10 uM by microplate scintillation counting
[9] = target: Eukaryotic translation initiation factor 2-alpha kinase 1 (Homo sapiens) (UniProt Q9BQI3); assay: Residual activity of HRI at 1 uM by microplate scintillation counting
[10] = target: Homeodomain-interacting protein kinase 3 (Homo sapiens) (UniProt Q9H422); assay: Residual activity of HIPK3 at 0.1 uM by microplate scintillation counting
[11] = target: T3, Serine/threonine-protein kinase 3 (Homo sapiens) (UniProt Q13188); assay: Residual activity of MST2 at 1 uM by microplate scintillation counting
T3 sequence (whole entry): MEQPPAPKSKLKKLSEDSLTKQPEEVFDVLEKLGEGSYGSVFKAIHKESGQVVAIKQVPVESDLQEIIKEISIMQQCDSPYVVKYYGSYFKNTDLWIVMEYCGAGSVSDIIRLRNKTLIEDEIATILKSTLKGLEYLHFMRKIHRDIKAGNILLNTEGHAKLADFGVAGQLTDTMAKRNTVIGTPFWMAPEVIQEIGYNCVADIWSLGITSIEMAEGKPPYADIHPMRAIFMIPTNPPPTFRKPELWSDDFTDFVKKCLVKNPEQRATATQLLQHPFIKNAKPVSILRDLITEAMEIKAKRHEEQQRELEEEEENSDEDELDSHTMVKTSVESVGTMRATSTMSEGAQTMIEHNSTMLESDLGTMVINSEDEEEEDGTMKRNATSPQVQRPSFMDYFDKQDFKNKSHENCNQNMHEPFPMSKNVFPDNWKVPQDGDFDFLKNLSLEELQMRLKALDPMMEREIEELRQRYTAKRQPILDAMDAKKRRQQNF

[12] = target: Serine/threonine-protein kinase PLK1 (Homo sapiens) (UniProt P53350); assay: Residual activity of PLK1 at 1 uM by microplate scintillation counting
Chain of Serine/threonine-protein kinase PLK1 (Homo sapiens) (P53350 whole entry): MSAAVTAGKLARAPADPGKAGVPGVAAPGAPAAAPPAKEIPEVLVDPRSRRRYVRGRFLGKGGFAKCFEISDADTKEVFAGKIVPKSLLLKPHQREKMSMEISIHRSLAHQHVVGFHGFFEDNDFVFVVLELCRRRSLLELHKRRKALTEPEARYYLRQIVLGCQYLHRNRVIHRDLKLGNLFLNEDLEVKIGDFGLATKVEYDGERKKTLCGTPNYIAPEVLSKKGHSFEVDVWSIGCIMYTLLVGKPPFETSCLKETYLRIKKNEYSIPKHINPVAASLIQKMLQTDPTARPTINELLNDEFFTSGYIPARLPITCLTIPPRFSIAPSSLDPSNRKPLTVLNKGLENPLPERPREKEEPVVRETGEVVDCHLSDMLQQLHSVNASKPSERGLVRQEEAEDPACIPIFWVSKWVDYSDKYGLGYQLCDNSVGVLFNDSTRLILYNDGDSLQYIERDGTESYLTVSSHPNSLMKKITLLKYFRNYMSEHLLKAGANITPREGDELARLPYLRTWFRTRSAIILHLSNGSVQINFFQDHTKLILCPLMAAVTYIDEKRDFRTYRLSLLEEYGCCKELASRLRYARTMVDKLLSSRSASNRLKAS

Chain of Serine/threonine-protein kinase WNK2 (Homo sapiens) (Q9Y3S1 whole entry): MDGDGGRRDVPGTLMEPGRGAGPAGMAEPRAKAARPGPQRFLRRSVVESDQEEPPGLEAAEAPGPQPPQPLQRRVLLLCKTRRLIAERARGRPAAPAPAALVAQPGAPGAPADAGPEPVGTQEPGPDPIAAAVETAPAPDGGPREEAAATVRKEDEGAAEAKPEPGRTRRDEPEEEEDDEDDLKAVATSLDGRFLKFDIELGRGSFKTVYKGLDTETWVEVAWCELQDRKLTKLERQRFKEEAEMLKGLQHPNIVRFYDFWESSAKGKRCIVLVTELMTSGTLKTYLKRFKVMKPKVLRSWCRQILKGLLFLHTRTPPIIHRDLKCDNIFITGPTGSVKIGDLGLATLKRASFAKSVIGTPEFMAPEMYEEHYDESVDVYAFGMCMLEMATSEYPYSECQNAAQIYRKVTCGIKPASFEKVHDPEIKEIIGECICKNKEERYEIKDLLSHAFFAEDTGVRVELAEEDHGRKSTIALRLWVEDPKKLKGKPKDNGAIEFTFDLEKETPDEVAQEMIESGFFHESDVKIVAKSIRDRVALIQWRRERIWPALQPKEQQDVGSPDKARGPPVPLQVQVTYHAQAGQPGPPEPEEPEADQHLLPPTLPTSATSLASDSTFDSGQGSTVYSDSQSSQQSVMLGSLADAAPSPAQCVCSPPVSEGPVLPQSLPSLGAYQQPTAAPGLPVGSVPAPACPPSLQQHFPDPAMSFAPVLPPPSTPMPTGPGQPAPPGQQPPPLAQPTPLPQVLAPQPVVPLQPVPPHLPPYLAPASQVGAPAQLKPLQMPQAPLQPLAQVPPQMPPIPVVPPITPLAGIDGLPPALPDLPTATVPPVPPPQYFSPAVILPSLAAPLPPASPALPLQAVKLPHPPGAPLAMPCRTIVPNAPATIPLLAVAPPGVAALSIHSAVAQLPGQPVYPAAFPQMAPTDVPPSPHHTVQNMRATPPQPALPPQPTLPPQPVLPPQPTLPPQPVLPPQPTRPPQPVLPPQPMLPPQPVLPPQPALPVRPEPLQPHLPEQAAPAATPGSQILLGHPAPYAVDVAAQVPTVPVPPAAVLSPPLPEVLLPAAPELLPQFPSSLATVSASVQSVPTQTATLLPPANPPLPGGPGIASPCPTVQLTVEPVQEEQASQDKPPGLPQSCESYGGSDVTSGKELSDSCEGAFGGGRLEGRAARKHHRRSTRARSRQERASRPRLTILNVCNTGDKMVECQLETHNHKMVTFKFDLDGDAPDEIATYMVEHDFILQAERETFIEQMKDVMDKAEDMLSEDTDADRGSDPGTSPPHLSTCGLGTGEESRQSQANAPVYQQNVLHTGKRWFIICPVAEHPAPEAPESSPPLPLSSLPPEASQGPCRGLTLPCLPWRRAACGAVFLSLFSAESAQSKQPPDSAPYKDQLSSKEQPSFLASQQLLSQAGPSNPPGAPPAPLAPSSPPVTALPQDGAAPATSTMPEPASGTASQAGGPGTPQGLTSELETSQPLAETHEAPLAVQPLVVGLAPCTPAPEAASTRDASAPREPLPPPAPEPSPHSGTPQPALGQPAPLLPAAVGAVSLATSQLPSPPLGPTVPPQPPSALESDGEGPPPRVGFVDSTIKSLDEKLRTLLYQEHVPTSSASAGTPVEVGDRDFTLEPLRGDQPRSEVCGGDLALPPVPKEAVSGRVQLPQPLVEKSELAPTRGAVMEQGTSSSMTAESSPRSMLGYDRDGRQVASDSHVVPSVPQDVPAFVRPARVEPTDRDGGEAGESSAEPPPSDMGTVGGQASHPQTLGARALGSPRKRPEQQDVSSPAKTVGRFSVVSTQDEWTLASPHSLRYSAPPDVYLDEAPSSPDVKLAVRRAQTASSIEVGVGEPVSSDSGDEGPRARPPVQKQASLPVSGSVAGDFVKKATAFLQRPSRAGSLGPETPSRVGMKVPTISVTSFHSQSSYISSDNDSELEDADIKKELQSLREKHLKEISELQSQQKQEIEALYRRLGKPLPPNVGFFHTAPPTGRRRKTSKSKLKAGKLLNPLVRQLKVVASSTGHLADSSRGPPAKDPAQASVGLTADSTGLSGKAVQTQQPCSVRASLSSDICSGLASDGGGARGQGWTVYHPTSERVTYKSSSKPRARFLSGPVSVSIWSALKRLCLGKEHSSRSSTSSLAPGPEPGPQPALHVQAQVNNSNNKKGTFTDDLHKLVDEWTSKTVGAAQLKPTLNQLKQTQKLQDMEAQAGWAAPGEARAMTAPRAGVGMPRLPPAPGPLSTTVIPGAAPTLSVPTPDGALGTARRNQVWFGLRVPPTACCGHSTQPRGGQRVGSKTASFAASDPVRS
Chain of Casein kinase I isoform gamma-1 (Homo sapiens) (Q9HCP0 whole entry, looked up, canonical isoform): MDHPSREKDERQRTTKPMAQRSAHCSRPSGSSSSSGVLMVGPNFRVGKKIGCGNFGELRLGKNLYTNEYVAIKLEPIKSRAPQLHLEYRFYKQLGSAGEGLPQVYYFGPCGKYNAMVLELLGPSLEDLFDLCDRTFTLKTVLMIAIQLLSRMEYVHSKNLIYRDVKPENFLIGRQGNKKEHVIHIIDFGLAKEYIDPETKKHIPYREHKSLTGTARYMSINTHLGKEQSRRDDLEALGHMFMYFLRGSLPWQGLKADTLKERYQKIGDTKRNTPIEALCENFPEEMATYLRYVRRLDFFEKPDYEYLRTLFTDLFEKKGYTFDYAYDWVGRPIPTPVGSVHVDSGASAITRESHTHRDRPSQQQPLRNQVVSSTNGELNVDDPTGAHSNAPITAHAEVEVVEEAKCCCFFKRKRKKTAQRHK
Chain of Activin receptor type-1-like (Homo sapiens) (P37023 whole entry): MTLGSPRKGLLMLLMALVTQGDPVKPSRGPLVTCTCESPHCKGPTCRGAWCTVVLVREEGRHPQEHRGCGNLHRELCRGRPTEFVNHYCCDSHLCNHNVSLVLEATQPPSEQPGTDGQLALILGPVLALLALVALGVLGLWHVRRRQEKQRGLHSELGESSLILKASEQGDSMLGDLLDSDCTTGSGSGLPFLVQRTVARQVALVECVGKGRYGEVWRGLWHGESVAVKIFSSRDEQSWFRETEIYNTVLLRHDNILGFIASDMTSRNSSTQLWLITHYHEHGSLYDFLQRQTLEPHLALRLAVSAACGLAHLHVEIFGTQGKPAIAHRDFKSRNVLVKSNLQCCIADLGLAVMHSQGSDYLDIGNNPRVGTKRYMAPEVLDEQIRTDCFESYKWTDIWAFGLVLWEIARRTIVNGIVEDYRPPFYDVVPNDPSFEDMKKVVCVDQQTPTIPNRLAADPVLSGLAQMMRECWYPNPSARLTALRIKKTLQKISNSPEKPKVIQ
Chain of Eukaryotic translation initiation factor 2-alpha kinase 1 (Homo sapiens) (Q9BQI3 whole entry): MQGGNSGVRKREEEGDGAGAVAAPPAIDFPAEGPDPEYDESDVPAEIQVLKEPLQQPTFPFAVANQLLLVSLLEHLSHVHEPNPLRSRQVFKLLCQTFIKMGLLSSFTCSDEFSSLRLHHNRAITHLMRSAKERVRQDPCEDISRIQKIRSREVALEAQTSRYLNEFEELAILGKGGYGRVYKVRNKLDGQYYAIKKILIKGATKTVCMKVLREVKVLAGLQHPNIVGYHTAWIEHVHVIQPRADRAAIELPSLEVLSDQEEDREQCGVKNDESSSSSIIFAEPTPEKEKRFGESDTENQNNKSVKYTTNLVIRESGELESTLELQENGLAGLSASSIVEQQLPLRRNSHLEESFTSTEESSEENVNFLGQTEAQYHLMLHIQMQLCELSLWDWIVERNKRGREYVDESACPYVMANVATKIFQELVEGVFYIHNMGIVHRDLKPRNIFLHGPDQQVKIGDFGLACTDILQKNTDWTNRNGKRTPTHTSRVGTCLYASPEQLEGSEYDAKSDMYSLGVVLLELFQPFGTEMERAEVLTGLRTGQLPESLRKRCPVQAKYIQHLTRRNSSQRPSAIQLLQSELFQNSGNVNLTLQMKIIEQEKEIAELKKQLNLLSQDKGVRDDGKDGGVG
Chain of Tyrosine-protein kinase CSK (Homo sapiens) (P41240 2-450 limits assumed): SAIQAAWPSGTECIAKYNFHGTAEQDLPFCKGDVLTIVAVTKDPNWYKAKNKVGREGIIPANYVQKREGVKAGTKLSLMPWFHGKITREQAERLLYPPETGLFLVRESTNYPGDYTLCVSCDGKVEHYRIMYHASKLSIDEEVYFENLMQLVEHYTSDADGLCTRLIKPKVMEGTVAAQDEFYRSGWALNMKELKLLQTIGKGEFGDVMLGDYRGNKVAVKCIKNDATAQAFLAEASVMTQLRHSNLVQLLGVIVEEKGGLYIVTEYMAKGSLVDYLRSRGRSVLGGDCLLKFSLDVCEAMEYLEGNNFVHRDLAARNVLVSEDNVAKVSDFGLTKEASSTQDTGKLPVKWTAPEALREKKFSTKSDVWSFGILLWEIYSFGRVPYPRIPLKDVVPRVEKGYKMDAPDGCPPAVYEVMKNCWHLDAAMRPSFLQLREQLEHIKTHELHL

residual activity [1] [%] | residual activity [2] [%] | residual activity [3] [%] | residual activity [4] [%] | residual activity [5] [%] | residual activity [6] [%] | residual activity [7] [%] | residual activity [8] [%] | residual activity [9] [%] | residual activity [10] [%] | residual activity [11] [%] | residual activity [12] [%] | Structure (SMILES)
97 | 92 | 46 | 84 | 34 | 53 | 223 | 144 | 108 | 92 | 66 | 88 | COc1cc2c(Oc3ccc(-c4nc5ccccc5s4)cc3)ncnc2cc1OCCCN1CCCC1
76 | 92 | 41 | 100 | 53 | 6 | 124 | 163 | 87 | 93 | 86 | 97 | COc1cc2c(Oc3ccc(-c4nc5ccccc5s4)cc3F)ncnc2cc1OCCCN1CCN(C)CC1
82 | 78 | 44 | 102 | 25 | 40 | 429 | 161 | 108 | 88 | 67 | 100 | COc1cc2c(Oc3ccc(-c4nc5ccccc5s4)cc3)ncnc2cc1OCCCN1CCN(C)CC1
